{
  "source": "ChEMBL document CHEMBL1154029",
  "about": "“Novel derivatives of ISO-1 as potent inhibitors of MIF biological function” (Bioorg Med Chem Lett, 2009)",
  "key": {"[1]": {"biological_target": "T1, Macrophage migration inhibitory factor (Homo sapiens, UniProt P14174)", "T1 sequence (P14174 whole entry)": "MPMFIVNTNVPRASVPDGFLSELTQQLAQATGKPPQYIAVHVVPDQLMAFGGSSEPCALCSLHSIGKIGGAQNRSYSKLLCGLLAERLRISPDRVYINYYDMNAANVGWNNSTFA", "assay": "Inhibition of dopachrome tautomerase activity of MIF in human THP1 cells; call rule not given here", "format": "cell-based, THP-1"}, "[2]": {"biological_target": "T1, Macrophage migration inhibitory factor", "assay": "Inhibition of dopachrome tautomerase activity of human recombinant MIF"}, "[3]": {"biological_target": "T1, Macrophage migration inhibitory factor", "assay": "Inhibition of spontaneous secretion/release/recognition of MIF from freshly isolated human PBMC by ELISA"}, "[4]": {"biological_target": "T2, Macrophage migration inhibitory factor (Homo sapiens) (UniProt P14174)", "T2 sequence (whole entry)": "T1 sequence (P14174 whole entry)", "assay": "Inhibition of MIF-induced TNFalpha production in human PBMC at 100 uM by ELISA"}, "[5]": {"biological_target": "T2, Macrophage migration inhibitory factor (Homo sapiens)", "assay": "Inhibition of MIF-induced IL1-beta production in human PBMC at 100 uM by ELISA"}, "[6]": {"biological_target": "T2, Macrophage migration inhibitory factor (Homo sapiens)", "assay": "Inhibition of MIF-induced IL6 production in human PBMC at 100 uM by ELISA"}},
  "data": [
    {"smiles": "CC(C)CC(=O)NCCC1CC(c2ccc(O)c(F)c2)=NO1", "note": "(centres undefined)", "values": [
      {"measurement": "IC50", "setting": "[1]", "value": 29, "unit": "µM"},
      {"measurement": "IC50", "setting": "[2]", "value": 22, "unit": "µM"},
      {"measurement": "IC50", "setting": "[3]; read-out: IC50", "value": 20, "unit": "µM"},
      {"measurement": "inhibition", "setting": "[4]", "value": 53, "unit": "%"},
      {"measurement": "inhibition", "setting": "[5]", "value": 58, "unit": "%"},
      {"measurement": "inhibition", "setting": "[6]", "value": 47, "unit": "%"}
    ]},
    {"smiles": "O=C(NCCC1CC(c2ccc(O)c(F)c2)=NO1)C(F)(F)F", "note": "(centres undefined)", "values": [
      {"measurement": "IC50", "setting": "[1]", "value": 49, "unit": "µM"},
      {"measurement": "IC50", "setting": "[2]", "value": "> 100", "unit": "µM"},
      {"measurement": "IC50", "setting": "[3]; read-out: IC50", "value": 15, "unit": "µM"},
      {"measurement": "inhibition", "setting": "[4]", "value": 53, "unit": "%"},
      {"measurement": "inhibition", "setting": "[5]", "value": 66, "unit": "%"},
      {"measurement": "inhibition", "setting": "[6]", "value": 49, "unit": "%"}
    ]},
    {"smiles": "O=C(CCc1nc(C2CC(c3ccc(O)c(F)c3)=NO2)no1)NC1CCCCC1", "note": "(centres undefined)", "values": [
      {"measurement": "IC50", "setting": "[1]", "value": 25, "unit": "µM"},
      {"measurement": "IC50", "setting": "[2]", "value": "> 100", "unit": "µM"},
      {"measurement": "IC50", "setting": "[3]", "value": "Not Active"}
    ]},
    {"smiles": "CC(C)(C)C(=O)NCC1CC(c2ccc(O)c(F)c2)=NO1", "note": "(centres undefined)", "values": [
      {"measurement": "IC50", "setting": "[1]", "value": "> 100", "unit": "µM"}
    ]},
    {"smiles": "COc1ccc(C2=NOC(c3noc(-c4ccccc4N(C)C(=O)O)n3)C2)cc1F", "note": "(centres undefined)", "values": [
      {"measurement": "IC50", "setting": "[1]", "value": "> 100", "unit": "µM"}
    ]},
    {"smiles": "Oc1ccc(C2=NOC(c3noc(-c4cccc(O)c4O)n3)C2)cc1F", "note": "(centres undefined)", "values": [
      {"measurement": "IC50", "setting": "[1]", "value": 19, "unit": "µM"},
      {"measurement": "IC50", "setting": "[2]", "value": "> 100", "unit": "µM"},
      {"measurement": "IC50", "setting": "[3]", "value": "Not Active"}
    ]},
    {"smiles": "O=C1CCC(=O)N1CCC1CC(c2ccc(O)c(F)c2)=NO1", "note": "(centres undefined)", "values": [
      {"measurement": "IC50", "setting": "[1]", "value": 15, "unit": "µM"},
      {"measurement": "IC50", "setting": "[2]", "value": 50, "unit": "µM"},
      {"measurement": "IC50", "setting": "[3]; read-out: IC50", "value": 20, "unit": "µM"},
      {"measurement": "inhibition", "setting": "[4]", "value": 39, "unit": "%"},
      {"measurement": "inhibition", "setting": "[5]", "value": 27, "unit": "%"},
      {"measurement": "inhibition", "setting": "[6]", "value": 14, "unit": "%"}
    ]},
    {"smiles": "O=C1c2ccccc2C(=O)N1CCCC1CC(c2ccc(O)c(F)c2)=NO1", "note": "(centres undefined)", "values": [
      {"measurement": "IC50", "setting": "[1]", "value": 2, "unit": "µM"},
      {"measurement": "IC50", "setting": "[2]", "value": 7, "unit": "µM"},
      {"measurement": "IC50", "setting": "[3]", "value": "Not Active"}
    ]},
    {"smiles": "COc1ccc(C2=NOC(c3noc(CCC(=O)O)n3)C2)cc1F", "note": "(centres undefined)", "values": [
      {"measurement": "IC50", "setting": "[1]", "value": 12, "unit": "µM"},
      {"measurement": "IC50", "setting": "[2]", "value": "> 100", "unit": "µM"},
      {"measurement": "IC50", "setting": "[3]; read-out: IC50", "value": 60, "unit": "µM"}
    ]},
    {"smiles": "Oc1ccc(C2=NOC(Cc3noc(C(F)(F)F)n3)C2)cc1F", "note": "(centres undefined)", "values": [
      {"measurement": "inhibition", "setting": "[4]", "value": 34, "unit": "%"},
      {"measurement": "inhibition", "setting": "[5]", "value": 46, "unit": "%"},
      {"measurement": "inhibition", "setting": "[6]", "value": 33, "unit": "%"}
    ]},
    {"smiles": "O=C1c2ccccc2C(=O)N1CC1CC(c2ccc(O)c(F)c2)=NO1", "note": "(centres undefined)", "values": [
      {"measurement": "IC50", "setting": "[1]", "value": 29, "unit": "µM"},
      {"measurement": "IC50", "setting": "[2]", "value": 36, "unit": "µM"},
      {"measurement": "IC50", "setting": "[3]", "value": "Not Active"}
    ]},
    {"smiles": "COC(=O)CC1CC(c2ccc(O)cc2)=NO1", "note": "(centres undefined)", "values": [
      {"measurement": "inhibition", "setting": "[4]", "value": 25, "unit": "%"},
      {"measurement": "inhibition", "setting": "[5]", "value": 25, "unit": "%"},
      {"measurement": "inhibition", "setting": "[6]", "value": 0, "unit": "%"}
    ]},
    {"smiles": "COc1ccc(C2=NOC(c3noc(-c4cccc(OC)c4OC)n3)C2)cc1F", "note": "(centres undefined)", "values": [
      {"measurement": "IC50", "setting": "[1]", "value": 20, "unit": "µM"},
      {"measurement": "IC50", "setting": "[2]", "value": 32, "unit": "µM"},
      {"measurement": "IC50", "setting": "[3]", "value": "Not Active"}
    ]},
    {"smiles": "Cc1nc(C2CC(c3ccc(O)c(F)c3)=NO2)no1", "note": "(centres undefined)", "values": [
      {"measurement": "IC50", "setting": "[1]", "value": 60, "unit": "µM"},
      {"measurement": "IC50", "setting": "[2]", "value": "> 100", "unit": "µM"}
    ]},
    {"smiles": "COc1ccc(C2=NOC(c3noc(C)n3)C2)cc1F", "note": "(centres undefined)", "values": [
      {"measurement": "IC50", "setting": "[1]", "value": "> 100", "unit": "µM"}
    ]},
    {"smiles": "COC(=O)CCc1nc(C2CC(c3ccc(O)c(F)c3)=NO2)no1", "note": "(centres undefined)", "values": [
      {"measurement": "IC50", "setting": "[1]", "value": 50, "unit": "µM"},
      {"measurement": "IC50", "setting": "[2]", "value": "> 100", "unit": "µM"},
      {"measurement": "IC50", "setting": "[3]", "value": "Not Active"}
    ]},
    {"smiles": "COc1ccc(C2=NOC(c3noc(CCC(=O)NC4CCCCC4)n3)C2)cc1F", "note": "(centres undefined)", "values": [
      {"measurement": "IC50", "setting": "[1]", "value": 30, "unit": "µM"},
      {"measurement": "IC50", "setting": "[2]", "value": 9.5, "unit": "µM"},
      {"measurement": "IC50", "setting": "[3]", "value": "Not Active"}
    ]},
    {"smiles": "CN(C)C(=O)NCC1CC(c2ccc(O)c(F)c2)=NO1", "note": "(centres undefined)", "values": [
      {"measurement": "IC50", "setting": "[1]", "value": "> 100", "unit": "µM"}
    ]},
    {"smiles": "O=C(NCCC1CC(c2ccc(O)c(F)c2)=NO1)c1ccc(F)cc1", "note": "(centres undefined)", "values": [
      {"measurement": "IC50", "setting": "[1]", "value": 15, "unit": "µM"},
      {"measurement": "IC50", "setting": "[2]", "value": 20, "unit": "µM"},
      {"measurement": "IC50", "setting": "[3]; read-out: IC50", "value": 10, "unit": "µM"},
      {"measurement": "inhibition", "setting": "[4]", "value": 56, "unit": "%"},
      {"measurement": "inhibition", "setting": "[5]", "value": 52, "unit": "%"},
      {"measurement": "inhibition", "setting": "[6]", "value": 54, "unit": "%"}
    ]},
    {"smiles": "CC(C)CC(=O)NCC1CC(c2ccc(O)c(F)c2)=NO1", "note": "(centres undefined)", "values": [
      {"measurement": "IC50", "setting": "[1]", "value": "> 100", "unit": "µM"}
    ]},
    {"smiles": "COc1ccc(C2=NOC(c3noc(C(F)(F)F)n3)C2)cc1F", "note": "(centres undefined)", "values": [
      {"measurement": "IC50", "setting": "[1]", "value": 100, "unit": "µM"},
      {"measurement": "IC50", "setting": "[2]", "value": 95, "unit": "µM"}
    ]},
    {"smiles": "Oc1ccc(C2=NOC(c3noc(C(F)(F)F)n3)C2)cc1F", "note": "(centres undefined)", "values": [
      {"measurement": "IC50", "setting": "[1]", "value": 60, "unit": "µM"},
      {"measurement": "IC50", "setting": "[2]", "value": "> 100", "unit": "µM"}
    ]},
    {"smiles": "COc1ccc(C2=NOC(Cc3noc(C(F)(F)F)n3)C2)cc1F", "note": "(centres undefined)", "values": [
      {"measurement": "IC50", "setting": "[1]", "value": "> 100", "unit": "µM"},
      {"measurement": "IC50", "setting": "[2]", "value": 55, "unit": "µM"}
    ]},
    {"smiles": "O=C1c2ccccc2C(=O)N1CCC1CC(c2ccc(O)c(F)c2)=NO1", "note": "(centres undefined)", "values": [
      {"measurement": "IC50", "setting": "[1]", "value": 0.5, "unit": "µM"},
      {"measurement": "IC50", "setting": "[2]", "value": 0.8, "unit": "µM"},
      {"measurement": "IC50", "setting": "[3]; read-out: IC50", "value": 1.5, "unit": "µM"},
      {"measurement": "inhibition", "setting": "[4]", "value": 31, "unit": "%"},
      {"measurement": "inhibition", "setting": "[5]", "value": 22, "unit": "%"},
      {"measurement": "inhibition", "setting": "[6]", "value": 22, "unit": "%"}
    ]},
    {"smiles": "CC(C)(C)C(=O)NCCC1CC(c2ccc(O)c(F)c2)=NO1", "note": "(centres undefined)", "values": [
      {"measurement": "IC50", "setting": "[1]", "value": 28, "unit": "µM"},
      {"measurement": "IC50", "setting": "[2]", "value": 22, "unit": "µM"},
      {"measurement": "IC50", "setting": "[3]; read-out: IC50", "value": 15, "unit": "µM"},
      {"measurement": "inhibition", "setting": "[4]", "value": 40, "unit": "%"},
      {"measurement": "inhibition", "setting": "[5]", "value": 50, "unit": "%"},
      {"measurement": "inhibition", "setting": "[6]", "value": 39, "unit": "%"}
    ]}
  ]
}
